{"source": "ChEMBL document CHEMBL6092145", "about": "“Recent advances in the design of small molecular drugs with acrylamides covalent warheads” (Bioorg Med Chem, 2024)", "key": {"[1]": {"target": "Tyrosine-protein kinase Lyn (Homo sapiens, UniProt P07948)", "sequence (P07948 whole entry)": "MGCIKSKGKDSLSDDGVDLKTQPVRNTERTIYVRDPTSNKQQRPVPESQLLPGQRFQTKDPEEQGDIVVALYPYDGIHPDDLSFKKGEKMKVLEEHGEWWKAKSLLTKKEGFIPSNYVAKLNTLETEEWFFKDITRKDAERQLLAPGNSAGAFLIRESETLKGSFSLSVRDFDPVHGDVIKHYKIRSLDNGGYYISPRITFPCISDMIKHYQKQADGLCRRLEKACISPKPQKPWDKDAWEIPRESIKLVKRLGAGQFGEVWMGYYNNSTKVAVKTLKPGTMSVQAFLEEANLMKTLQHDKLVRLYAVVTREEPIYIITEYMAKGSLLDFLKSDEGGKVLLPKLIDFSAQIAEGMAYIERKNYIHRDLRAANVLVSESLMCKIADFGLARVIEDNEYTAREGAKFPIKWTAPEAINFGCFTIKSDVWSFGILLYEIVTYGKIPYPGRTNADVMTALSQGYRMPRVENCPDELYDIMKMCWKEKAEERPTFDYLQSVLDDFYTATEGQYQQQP", "description": "Inhibition of LYN (unknown origin)"}, "[2]": {"target": "Tyrosine-protein kinase Lck (Homo sapiens, UniProt P06239)", "sequence (P06239 whole entry)": "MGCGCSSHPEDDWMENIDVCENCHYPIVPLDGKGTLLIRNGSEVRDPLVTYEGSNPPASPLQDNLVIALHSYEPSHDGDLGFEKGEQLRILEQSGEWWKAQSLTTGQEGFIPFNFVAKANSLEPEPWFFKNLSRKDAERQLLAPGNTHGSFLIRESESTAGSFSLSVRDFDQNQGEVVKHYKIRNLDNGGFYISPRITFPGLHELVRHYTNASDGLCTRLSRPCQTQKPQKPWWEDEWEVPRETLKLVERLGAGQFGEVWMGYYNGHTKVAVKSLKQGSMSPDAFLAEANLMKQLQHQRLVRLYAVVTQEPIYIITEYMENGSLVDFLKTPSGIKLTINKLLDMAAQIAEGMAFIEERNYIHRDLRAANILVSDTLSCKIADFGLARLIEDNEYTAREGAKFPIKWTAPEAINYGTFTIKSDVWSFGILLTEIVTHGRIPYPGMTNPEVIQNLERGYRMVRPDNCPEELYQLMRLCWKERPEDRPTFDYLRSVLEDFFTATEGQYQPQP", "description": "Inhibition of LCK (unknown origin) using TK as substrate incubated for 30 mins by HTRF assay"}, "[3]": {"tested_on": "NCI-H358", "experiment": "cells", "format": "functional, cell-based", "details": "Homo sapiens", "description": "Antiproliferative activity against human NCI-H358 cells assessed as reduction in cell viability"}, "[4]": {"target": "Tyrosine-protein kinase BTK (Homo sapiens, UniProt Q06187)", "sequence (Q06187 whole entry)": "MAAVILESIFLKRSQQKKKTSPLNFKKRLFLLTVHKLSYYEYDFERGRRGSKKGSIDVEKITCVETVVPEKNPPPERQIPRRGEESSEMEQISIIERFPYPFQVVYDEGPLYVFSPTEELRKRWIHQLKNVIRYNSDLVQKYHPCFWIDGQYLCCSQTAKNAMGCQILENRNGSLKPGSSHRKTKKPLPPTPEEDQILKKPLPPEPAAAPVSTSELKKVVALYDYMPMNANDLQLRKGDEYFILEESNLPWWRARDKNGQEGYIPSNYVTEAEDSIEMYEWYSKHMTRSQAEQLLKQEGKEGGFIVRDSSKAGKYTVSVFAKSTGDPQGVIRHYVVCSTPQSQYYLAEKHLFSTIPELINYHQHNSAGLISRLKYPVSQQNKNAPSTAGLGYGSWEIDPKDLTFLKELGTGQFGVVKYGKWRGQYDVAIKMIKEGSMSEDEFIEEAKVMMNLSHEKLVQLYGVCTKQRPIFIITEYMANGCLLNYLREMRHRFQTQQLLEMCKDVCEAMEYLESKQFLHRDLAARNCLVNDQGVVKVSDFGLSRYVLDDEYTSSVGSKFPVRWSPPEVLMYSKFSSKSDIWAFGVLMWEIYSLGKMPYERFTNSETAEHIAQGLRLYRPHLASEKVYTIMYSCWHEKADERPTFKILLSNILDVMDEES", "description": "Inhibition of BTK (unknown origin)"}, "[5]": {"target": "Tyrosine-protein kinase Blk (Homo sapiens, UniProt P51451)", "sequence (P51451 whole entry)": "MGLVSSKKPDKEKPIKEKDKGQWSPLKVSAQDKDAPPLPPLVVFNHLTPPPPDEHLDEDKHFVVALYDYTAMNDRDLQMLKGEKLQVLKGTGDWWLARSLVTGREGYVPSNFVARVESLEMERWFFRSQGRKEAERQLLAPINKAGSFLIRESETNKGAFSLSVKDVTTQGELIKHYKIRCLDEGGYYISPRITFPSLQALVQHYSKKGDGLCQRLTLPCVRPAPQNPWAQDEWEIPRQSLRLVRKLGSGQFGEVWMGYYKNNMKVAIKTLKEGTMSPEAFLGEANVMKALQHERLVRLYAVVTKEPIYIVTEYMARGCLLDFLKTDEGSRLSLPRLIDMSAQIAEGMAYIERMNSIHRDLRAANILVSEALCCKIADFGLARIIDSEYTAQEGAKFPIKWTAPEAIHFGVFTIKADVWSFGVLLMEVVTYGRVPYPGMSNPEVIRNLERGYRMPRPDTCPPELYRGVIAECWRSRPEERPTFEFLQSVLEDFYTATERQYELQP", "description": "Inhibition of BLK (unknown origin)"}, "[6]": {"experiment": "clinical", "details": "human, in vivo, po", "description": "Oral bioavailability in human"}, "[7]": {"tested_on": "NCI-H358", "experiment": "cells", "format": "functional, cell-based", "details": "Homo sapiens, NCI-H358, 72 h", "description": "Antiproliferative activity against human NCI-H358 cells assessed as reduction in cell growth incubated for 72 hrs by cell-titer glo assay"}, "[8]": {"target": "Epidermal growth factor receptor (Homo sapiens, UniProt P00533)", "sequence (P00533 whole entry)": "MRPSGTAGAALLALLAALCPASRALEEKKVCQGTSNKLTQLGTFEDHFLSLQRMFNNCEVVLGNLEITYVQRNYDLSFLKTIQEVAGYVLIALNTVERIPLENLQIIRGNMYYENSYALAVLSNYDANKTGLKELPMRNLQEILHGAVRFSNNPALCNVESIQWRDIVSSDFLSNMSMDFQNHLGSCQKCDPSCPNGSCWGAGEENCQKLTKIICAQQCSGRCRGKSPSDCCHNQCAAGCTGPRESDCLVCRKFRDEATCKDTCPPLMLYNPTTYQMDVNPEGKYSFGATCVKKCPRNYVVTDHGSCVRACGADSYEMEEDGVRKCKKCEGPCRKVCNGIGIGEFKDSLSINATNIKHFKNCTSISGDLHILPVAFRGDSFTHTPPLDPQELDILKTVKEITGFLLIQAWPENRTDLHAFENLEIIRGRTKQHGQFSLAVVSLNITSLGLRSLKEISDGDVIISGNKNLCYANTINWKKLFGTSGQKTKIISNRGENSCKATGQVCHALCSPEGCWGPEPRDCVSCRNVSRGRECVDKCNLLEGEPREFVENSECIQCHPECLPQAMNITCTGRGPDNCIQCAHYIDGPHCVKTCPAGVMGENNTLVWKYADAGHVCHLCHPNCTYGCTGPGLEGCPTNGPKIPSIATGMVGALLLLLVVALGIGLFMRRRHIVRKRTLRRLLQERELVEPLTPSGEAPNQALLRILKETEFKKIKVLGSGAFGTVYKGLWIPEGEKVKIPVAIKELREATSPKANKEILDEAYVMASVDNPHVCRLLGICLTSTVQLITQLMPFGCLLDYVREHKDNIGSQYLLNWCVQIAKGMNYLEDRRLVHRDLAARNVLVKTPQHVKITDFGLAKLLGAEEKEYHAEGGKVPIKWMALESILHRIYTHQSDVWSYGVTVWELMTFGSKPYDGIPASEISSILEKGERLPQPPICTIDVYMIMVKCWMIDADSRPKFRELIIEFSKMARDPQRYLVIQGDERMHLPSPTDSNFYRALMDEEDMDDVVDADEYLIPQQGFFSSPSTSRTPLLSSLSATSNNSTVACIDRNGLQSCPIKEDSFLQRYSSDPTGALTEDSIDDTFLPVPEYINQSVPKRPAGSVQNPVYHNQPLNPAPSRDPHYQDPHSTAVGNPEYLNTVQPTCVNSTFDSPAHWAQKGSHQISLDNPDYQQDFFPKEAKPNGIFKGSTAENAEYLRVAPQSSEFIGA"}}, "data": [{"smiles": "Nc1ncnc2c1c(-c1ccc(Oc3ccccc3)cc1)nn2C1CCCC1", "values": [{"measurement": "IC50", "setting": "[1]", "value": 2.5, "unit": "nM"}, {"measurement": "IC50", "setting": "[2]", "value": 4.6, "unit": "nM"}]}, {"smiles": "C=CC(=O)N1CCN(c2ncnc3c(F)c(-c4c(O)cccc4F)c(Cl)cc23)CC1", "values": [{"measurement": "IC50", "setting": "[3]", "value": 939, "unit": "nM"}]}, {"smiles": "C=CC(=O)NC1Cn2c(c(-c3ccc(Oc4ccccc4)cc3)c3c(N)ncnc32)C1=C", "note": "(centres undefined)", "values": [{"measurement": "IC50", "setting": "[4]", "value": 0.4, "unit": "nM"}, {"measurement": "IC50", "setting": "[5]", "value": 0.5, "unit": "nM"}]}, {"smiles": "C=CC(=O)N1CCN(C(=O)CNc2cc(Cl)c(Cl)cc2OC)CC1", "values": [{"measurement": "IC50", "setting": "[5]", "value": "> 1000", "unit": "nM"}]}, {"smiles": "C=CC(=O)N1CC(N2CCN(C(=O)CNc3cc(C4(C)CC4)c(Cl)cc3O)CC2)C1", "values": [{"measurement": "IC50", "setting": "[3]", "value": 250, "unit": "nM"}]}, {"smiles": "C=CC(=O)N1CCN(c2nc(OC[C@@H]3CCCN3C)nc3c2CCN(c2cccc4cccc(Cl)c24)C3)C[C@@H]1CC#N", "values": [{"measurement": "bioavailability", "setting": "[6]", "value": 16.9, "unit": "%"}, {"measurement": "IC50", "setting": "[7]", "value": 1, "unit": "nM"}]}, {"smiles": "C=C(F)C(=O)N1CCN(c2nc(OC[C@@H]3CCCN3CCCOCCC(=O)N[C@H](C(=O)N3C[C@H](O)C[C@H]3C(=O)NCc3ccc(-c4scnc4C)cc3)C(C)(C)C)nc3c2CCN(c2cccc4cccc(Cl)c24)C3)C[C@@H]1CC#N", "values": [{"measurement": "IC50", "setting": "[7]", "value": 520, "unit": "nM"}]}, {"smiles": "CN(C)CCSSCCNC(=O)C1CCN(C(=O)CSc2ccc(Cl)cc2)CC1", "values": [{"measurement": "IC50", "setting": "[5]", "value": "> 10000", "unit": "nM"}]}, {"smiles": "CN(C)CCSSCCC(=O)Nc1cc(-c2cccs2)[nH]n1", "values": [{"measurement": "IC50", "setting": "[5]", "value": "> 10000", "unit": "nM"}]}, {"smiles": "CN(C)CCSSCCC(=O)NC1CCN(C(=O)COc2ccc(Cl)cc2Cl)CC1", "values": [{"measurement": "IC50", "setting": "[8]", "value": "> 10000", "unit": "nM"}]}, {"smiles": "C=CC(=O)N1CCN(c2nc(=O)n(-c3c(C)ccnc3C(C)C)c3nc(-c4c(O)cccc4F)c(F)cc23)[C@@H](C)C1", "note": "[SOTORASIB]", "values": [{"measurement": "IC50", "setting": "[3]", "value": 68, "unit": "nM"}]}]}
